Data taken from article PMC9966435, “Synthesis and Biological Evaluation of 3-Amidoquinuclidine Quaternary Ammonium Compounds as New Soft Antibacterial Agents” (Pharmaceuticals, 2023).
Values after ≈ are worked out from the molar mass of the structure shown. Read-outs that look alike come from different tables or passages of the source.

Experiments:
Type in all cases: cell-based
[1] = test system: Staphylococcus aureus Clinical/MRSA; assay: Broth microdilution MIC in Mueller Hinton broth; conditions: Staphylococcus aureus, MRSA, read-out: Minimum Inhibitory Concentration (MIC) Staphylococcus aureus Clinical/MRSA
[2] = test system: Bacillus cereus ATCC14579; assay: Broth microdilution MIC in Mueller Hinton broth; conditions: Bacillus cereus
[3] = test system: Enterococcus faecalis ATCC29212; assay: Broth microdilution MIC in Mueller Hinton broth; conditions: Enterococcus faecalis
[4] = test system: Listeria monocytogenes ATCC7644; assay: Broth microdilution MIC in Mueller Hinton broth; conditions: Listeria monocytogenes
[5] = test system: Pseudomonas aeruginosa ATTC27853; assay: Broth microdilution MIC in Mueller Hinton broth; conditions: Pseudomonas aeruginosa
[6] = test system: Staphylococcus aureus ATCC25923; assay: Broth microdilution MIC in Mueller Hinton broth
[7] = test system: Escherichia coli ATTC25922; assay: Broth microdilution MIC in Mueller Hinton broth; conditions: Escherichia coli
[8] = test system: Salmonella enterica food isolate; assay: microbe, parasite or virus in culture; conditions: Salmonella enterica, read-out: Minimum Inhibitory Concentration (MIC) Salmonella enterica food isolate
[9] = test system: Staphylococcus aureus ATCC33591; assay: Broth microdilution MIC in Mueller Hinton broth; conditions: Staphylococcus aureus
[10] = test system: Staphylococcus aureus ATCC 25923; assay: MIC in cation-adjusted Mueller Hinton broth (CA-MHB)
Method: A representative bacterial strain, Staphylococcus aureus ATCC 25923, was grown overnight in Mueller Hinton broth (MHB). The following day, the culture was diluted in tempered MHB and allowed to grow at 37 °C with constant shaking of 220 rpm. Once the bacterial culture reached the exponential growth phase (OD600 = 0.3–0.5), it was diluted in the cation-adjusted Mueller Hinton broth (CA-MHB) containing MgCl2 (10 mM) to the final cell count of 5 × 10^5 CFU/mL. The previously prepared 96-well plate contained twofold serial dilutions of the compounds to be tested, dissolved in CA-MHB, in the concentrations range of 125 µM to 0.12 µM. Then, 50 µL of the bacterial cells diluted in CA-MHB was pipetted in each well of the plate and incubated overnight at 37 °C with constant shaking at 220 rpm. The next day, the minimum inhibitory concentration (MIC) was determined as the lowest concentration of the compound that prevented supposed bacterial growth in the wells. Visually determined results of antibacterial activity were confirmed by the addition of 20 µL 2-(4-iodophenyl)-3-(4-nitrophenyl)-5-phenyltetrazolium chloride (INT) reagent (6 mg/mL). The MIC value of a drug in CA-MHB containing NaCl (85 mM) was determined using the same experimental technique.

[11] = test system: Staphylococcus aureus ATCC 25923; assay: MIC in Dulbecco's Modified Eagle Medium (DMEM)
Method: The overnight culture of Staphylococcus aureus ATCC 25923 was diluted in fresh Mueller Hinton broth (MHB) and placed in an orbital shaker incubator (Gallenkamp, Cambridge, UK) at 37 °C and 220 rpm. Once the culture reached the exponential growth phase (OD600 = 0.3–0.5), cells were centrifuged (Heraeus, Biofuge primo R, Hanau, Germany) at room temperature at a speed of 4000× g. The cell pellet was resuspended in tempered Dulbecco’s Modified Eagle Medium (DMEM) to a final concentration of 5 × 10^5 CFU/mL. Then, 50 µL of as-prepared cells were added to a 96-well plate containing twofold serial dilutions of tested compounds in DMEM medium in the range of concentrations from 125 µM to 0.12 µM. The minimum inhibitory concentration (MIC) was visually assessed the next day. The MIC was determined as the lowest concentration of the substance at which no apparent bacterial growth was seen.

[12] = test system: Staphylococcus aureus ATCC 25923; assay: Time-resolved growth analysis
Method: The growth kinetic experiments were performed to further investigate the efficacy of the selected 3-amidoquinnuclidine candidates. The candidates from series 1 (QC14-Me, QC14-Ally, QC16-Me, and QC16-Ally) and series 3 (QBn-C12, QBn-C14, and QBn-C16) were incubated at MIC and ½ MIC for 350 min with an appropriate number of CFU of Staphylococcus aureus ATCC 25923 at 37 °C with shaking. Time-resolved growth analysis was performed along with the control, in which bacterial growth was monitored without the presence of the antibacterial agent.
Time-resolved growth analysis was performed in the microtiter plate reader (Bio-Tek EL808, Winooski, VT, USA) by incubating the selected antibacterial agent with Staphylococcus aureus ATCC 25923. The exponentially grown culture (OD600 = 0.3–0.5) of S. aureus ATCC 25923 was diluted to a final concentration of 5 × 10^4 CFU/mL. Then, 50 µL of such prepared cell culture was added to the 96-well plates containing the MIC or ½ MIC of the compound to be tested. The plates were incubated at 37 °C for 350 min in the microplate reader with shaking. OD600 was recorded at 10 min intervals. The results obtained represent the mean of two independent experiments performed in triplicate.

[13] = ATCC14579, read-out: Minimum Inhibitory Concentration (MIC) Bacillus cereus ATCC14579
[14] = ATCC29212, read-out: Minimum Inhibitory Concentration (MIC) Enterococcus faecalis ATCC29212
[15] = ATCC7644, read-out: Minimum Inhibitory Concentration (MIC) Listeria monocytogenes ATCC7644
[16] = ATTC27853, read-out: Minimum Inhibitory Concentration (MIC) Pseudomonas aeruginosa ATTC27853
[17] = Staphylococcus aureus, ATCC25923, read-out: Minimum Inhibitory Concentration (MIC) Staphylococcus aureus ATCC25923
[18] = ATTC25922, read-out: Minimum Inhibitory Concentration (MIC) Escherichia coli ATTC25922
[19] = ATCC33591, read-out: Minimum Inhibitory Concentration (MIC) Staphylococcus aureus ATCC33591
[20] = ATCC14579, MHB, read-out: Minimum Inhibitory Concentration (MIC) Bacillus cereus ATCC14579
[21] = ATCC29212, MHB, read-out: Minimum Inhibitory Concentration (MIC) Enterococcus faecalis ATCC29212
[22] = ATCC7644, MHB, read-out: Minimum Inhibitory Concentration (MIC) Listeria monocytogenes ATCC7644
[23] = ATTC27853, MHB, read-out: Minimum Inhibitory Concentration (MIC) Pseudomonas aeruginosa ATTC27853
[24] = Staphylococcus aureus, ATCC25923, MHB, read-out: Minimum Inhibitory Concentration (MIC) Staphylococcus aureus ATCC25923
[25] = ATTC25922, MHB, read-out: Minimum Inhibitory Concentration (MIC) Escherichia coli ATTC25922
[26] = ATCC33591, MHB, read-out: Minimum Inhibitory Concentration (MIC) Staphylococcus aureus ATCC33591
[27] = ATCC25923, cation-adjusted MHB, S. aureus ATCC 25923, read-out: MIC CA-MHB
[28] = ATCC25923, Dulbecco's Modified Eagle Medium, S. aureus ATCC 25923, read-out: MIC DMEM
[29] = MHB, read-out: Minimum Inhibitory Concentration (MIC) Staphylococcus aureus ATCC25923
[30] = ATCC25923, read-out: MIC CA-MHB

SMILES	MIC [1]	MIC [2, 13]	MIC [3, 14]	MIC [4, 15]	MIC [5, 16]	MIC [6, 17]	MIC [7, 18]	MIC [8]	MIC [9, 19]	MIC [2, 20]	MIC [3, 21]	MIC [4, 22]	MIC [5, 23]	MIC [6, 24]	MIC [7, 25]	MIC [9, 26]	MIC [6, 29]	other results
CC(=O)NC1CN2CCC1CC2 (racemic) [QAc, (±)3-acetamidoquinuclidine]	> 100 µM	> 100 µM	> 100 µM	> 100 µM	> 100 µM	> 100 µM	> 100 µM	> 100 µM	> 100 µM	–	–	–	–	–	–	–	–	–
O=C(NC1CN2CCC1CC2)c1ccccc1 (racemic) [QBn, (±)3-benzamidoquinuclidine]	> 100 µM	–	–	–	–	–	–	> 100 µM	–	> 100 µM	> 100 µM	> 100 µM	> 100 µM	> 100 µM	> 100 µM	> 100 µM	–	–
CCCCCCCCCCCC[N+]12CCC(CC1)C(NC(C)=O)C2 (stereo not shown) [QAc-C12]	> 125 µM	> 125 µM	> 125 µM	> 125 µM	> 125 µM	> 125 µM	> 125 µM	> 125 µM	> 125 µM	–	–	–	–	–	–	–	–	–
CCCCCCCCCCCCCC[N+]12CCC(CC1)C(NC(C)=O)C2 (stereo not shown) [QAc-C14]	> 125 µM	> 125 µM	–	–	> 125 µM	> 125 µM	> 125 µM	> 125 µM	> 125 µM	–	63 µM	63 µM	–	–	–	–	–	–
CCCCCCCCCCCCCCCC[N+]12CCC(CC1)C(NC(C)=O)C2 (stereo not shown) [QAc-C16]	> 125 µM	> 125 µM	–	–	> 125 µM	> 125 µM	> 125 µM	> 125 µM	> 125 µM	–	31 µM	8 µM	–	–	–	–	–	–
CCCCCCCCCCCC[N+]12CCC(CC1)C(NC(=O)c1ccccc1)C2 (stereo not shown) [QBn-C12]	63 µM	–	–	–	–	–	–	63 µM	–	63 µM	31 µM	31 µM	> 125 µM	63 µM	63 µM	63 µM	63 µM	MIC [10, 27]: 25 µM; MIC [11, 28]: 3 µM
CCCCCCCCCCCCCC[N+]12CCC(CC1)C(NC(=O)c1ccccc1)C2 (stereo not shown) [QBn-C14]	31 µM	–	–	–	–	–	–	31 µM	–	63 µM	8 µM	4 µM	63 µM	31 µM	31 µM	31 µM	31 µM	MIC [10, 27]: 25 µM; MIC [11, 28]: 3 µM
CCCCCCCCCCCCCCCC[N+]12CCC(CC1)C(NC(=O)c1ccccc1)C2 (stereo not shown) [QBn-C16]	31 µM	–	–	–	–	–	–	63 µM	–	63 µM	4 µM	4 µM	> 125 µM	63 µM	31 µM	31 µM	63 µM	MIC [10, 27]: 6 µM; MIC [11, 28]: 3 µM
C=CC[N+]12CCC(CC1)C(NC(=O)CCCCCCCCCCC)C2 (stereo not shown) [QC12-Ally]	> 125 µM	> 125 µM	> 125 µM	> 125 µM	> 125 µM	> 125 µM	> 125 µM	> 125 µM	> 125 µM	–	–	–	–	–	–	–	–	–
CCCCCCCCCCCC(=O)NC1C[N+]2(C)CCC1CC2 (stereo not shown) [QC12-Me]	100 µM	–	–	–	> 125 µM	–	–	> 125 µM	> 125 µM	100 µM	100 µM	100 µM	–	100 µM	100 µM	–	–	–
CCCCCCCCCCCC(=O)NC1CN2CCC1CC2 (stereo not shown) [QC12]	> 100 µM	–	–	–	–	–	–	> 100 µM	–	> 100 µM	> 100 µM	100 µM (≈ 30.9 µg/mL)	> 100 µM	> 100 µM	> 100 µM	100 µM (≈ 30.9 µg/mL)	–	–
CCCCCCCCCCCCCC(=O)NC1C[N+]2(C)CCC1CC2 (stereo not shown) [QC14-Me]	60 µM	50 µM	30 µM	20 µM	> 125 µM	40 µM	100 µM	–	100 µM	–	–	–	–	–	–	–	40 µM	inhibition of bacterial growth at ½ MIC [12]: unable to inhibit bacterial growth; MIC [10, 30]: 40 µM; MIC ([11]; ATCC25923, read-out: MIC DMEM): 12 µM; MIC ([8]; MHB): > 125 µM
CCCCCCCCCCCCCC(=O)NC1CN2CCC1CC2 (stereo not shown) [QC14]	50 µM (≈ 16.8 µg/mL)	–	–	–	–	–	–	100 µM (≈ 33.7 µg/mL)	–	25 µM (≈ 8.41 µg/mL)	17 µM (≈ 5.72 µg/mL)	25 µM (≈ 8.41 µg/mL)	> 100 µM	60 µM (≈ 20.2 µg/mL)	50 µM (≈ 16.8 µg/mL)	50 µM (≈ 16.8 µg/mL)	–	–
CCCCCCCCCCCCCCCC(=O)NC1C[N+]2(C)CCC1CC2 (stereo not shown) [QC16-Me]	31 µM	> 100 µM	100 µM	8 µM	> 125 µM	16 µM	> 100 µM	–	25 µM	–	–	–	–	–	–	–	16 µM	MIC [10, 30]: 16 µM; MIC ([11]; ATCC25923, read-out: MIC DMEM): 6 µM; MIC ([8]; MHB): > 125 µM
CCCCCCCCCCCCCCCC(=O)NC1CN2CCC1CC2 (stereo not shown) [QC16]	250 µM (≈ 91.2 µg/mL)	–	–	–	–	–	–	> 100 µM	–	> 100 µM	> 100 µM	125 µM (≈ 45.6 µg/mL)	> 100 µM	62.5 µM (≈ 22.8 µg/mL)	> 100 µM	100 µM (≈ 36.5 µg/mL)	–	–
NC1CN2CCC1CC2 (stereo not shown) [QNH2, 3-aminoquinuclidine]	> 100 µM	> 100 µM	> 100 µM	> 100 µM	> 100 µM	> 100 µM	> 100 µM	> 100 µM	> 100 µM	–	–	–	–	–	–	–	–	–
